According to patent US8318504B2, “MRP2 efflux pathway prognostic method” (priority 2009, dated 2012):

Target: T1, OATP1B3 (Homo sapiens, UniProt Q9NPD5)
T1 construct: expressed in transfected cells; host or cells: CHO cells (stably transfected; Treiber et al. 2007)
T1 sequence (Q9NPD5 1-702): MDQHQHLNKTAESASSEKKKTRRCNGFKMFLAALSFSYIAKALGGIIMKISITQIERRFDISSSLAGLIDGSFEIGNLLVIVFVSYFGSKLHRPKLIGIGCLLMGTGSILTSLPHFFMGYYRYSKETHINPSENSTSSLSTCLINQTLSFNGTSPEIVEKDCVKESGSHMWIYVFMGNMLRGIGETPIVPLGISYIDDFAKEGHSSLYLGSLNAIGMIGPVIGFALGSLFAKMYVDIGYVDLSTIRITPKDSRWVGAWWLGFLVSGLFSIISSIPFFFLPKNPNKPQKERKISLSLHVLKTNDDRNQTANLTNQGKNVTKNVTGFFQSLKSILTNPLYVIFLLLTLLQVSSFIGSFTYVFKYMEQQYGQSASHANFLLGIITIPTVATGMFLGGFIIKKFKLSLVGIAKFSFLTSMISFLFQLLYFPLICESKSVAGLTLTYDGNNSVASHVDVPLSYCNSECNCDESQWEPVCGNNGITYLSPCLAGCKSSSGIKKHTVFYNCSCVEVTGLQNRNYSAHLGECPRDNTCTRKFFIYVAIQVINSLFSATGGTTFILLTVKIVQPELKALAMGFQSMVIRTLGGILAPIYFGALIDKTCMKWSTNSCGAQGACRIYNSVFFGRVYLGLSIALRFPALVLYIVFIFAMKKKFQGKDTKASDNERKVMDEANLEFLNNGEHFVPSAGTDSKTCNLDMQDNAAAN
Test: Inhibition by CLF of TC transport in CHO cells expressing OATP1B3
Type: cell-based
Settings: 0, 5 or 50 μmol/L CLF, 10 μmol/L TC
Description: FIGS. 3A-3D relate to inhibition of transport activity of hepatocellular uptake transporters by CLF. CHO cells expressing NTCP, OATP1B1, OATP1B3 and OATP2B1 were incubated with 0, 5 or 50 μmol/L CLF and with the substrates, 2.5 μmol/L TC, 1 μmol/L estrone-3-sulfate, 10 μmol/L TC and 1 μmol/L estrone-3-sulfate, respectively. Data represent means±SD of triplicate determinations.
For all transport experiments, cells grown on 3 cm culture dishes were cultured for 24 hours in media supplemented with 5 mmol/L sodium-butyrate to increase expression levels of transfected transporters [Palermo D P et al., J Biotechnol 1991 June; 19(1):35-47]. • Transport experiments with uptake of radioactively labeled substrates: These experiments were performed as described by Huber R D et al. [Am J Physiol Cell Physiol 2007 February; 292(2):C795-C806]. • Transport experiments with uptake of CLF: Uptake was performed in the same buffers as for the radioactive substrates above. […] After complete solubilization, 1.5 ml was used to measure fluorescence in a Perkin-Elmer LS-5 luminescence-spectrometer set at λexe 486 nm (slit 10 nm) and λem 520 nm (slit 5 nm). Protein was determined with the bicinchoninic acid method using a kit from Interchim (Montfuçon, France). […]

For `CC(CCC(=O)NC(CCCCNC(=S)Nc1ccc(-c2c3ccc(=O)cc-3oc3cc(O)ccc23)c(C(=O)O)c1)C(=O)O)C1CCC2C3C(O)CC4CC(O)CCC4(C)C3CC(O)C12C` (stereo not shown) [CLF, cholyl lysyl fluorescein], the “inhibition of transport of TC mediated by OATP1B3 by CLF” value was “inhibited by CLF in a dose-dependent manner”.
